Test results published in ChEMBL document CHEMBL1156829 (Proc Natl Acad Sci U S A, 2008).
pEC50: −log10 of the molar value.

Assays:
Plasmodium falciparum [1] = experiment: NOVARTIS: Inhibition of Plasmodium falciparum 3D7 (drug-susceptible) proliferation in erythrocyte-based infection assay; format: functional, organism-based; settings: Plasmodium falciparum, 3D7
[2] = NOVARTIS: Cytotoxicity against human hepatocellular carcinoma cell line (Huh7); format: toxicity, cell-based, Huh-7; settings: Huh7 cells (hepatocellular carcinoma cell line)
Plasmodium falciparum [3] = experiment: NOVARTIS: Inhibition of Plasmodium falciparum W2 (drug-resistant) proliferation in erythrocyte-based infection assay; format: functional, organism-based; settings: Plasmodium falciparum, W2; read-out: EC50

| SMILES | pEC50 (Plasmodium falciparum [1]) | CC50 [2] | pEC50 (Plasmodium falciparum [3]) |
| --- | --- | --- | --- |
| COc1ccc(OC)c(/C=C/C(=O)Nc2ccc3nc(N4CCN(C)CC4)cc(C)c3c2)c1 | < 5.90 | > 10 µM | < 6.06 |
| CCc1ccc(-n2c(C(CC)N(CCc3ccc(OC)c(OC)c3)C(=O)C(CC)c3ccccc3)nc3ccccc3c2=O)cc1 (stereo not given) | < 5.90 | > 10 µM | < 6.06 |
| COc1ccc(CCn2c(SCC(=O)N3CCN(c4ccccc4OC)CC3)nc3ccccc3c2=O)cc1OC | < 5.90 | > 10 µM | < 6.06 |
| NCCCCCCNC(=S)Nc1ccccc1 | < 5.85 | > 10 µM | < 6.07 |
| COc1cc(C=NNC(=O)Cc2nnc(N)s2)ccc1O | < 5.90 | > 12.7 µM | < 5.95 |
| CC1CCCCN1CCCNc1ncc(C(=O)NCc2ccccc2)c(NCCc2ccccc2)n1 (stereo not given) | 6.61 | > 10 µM | < 6.06 |
| Cc1ccc(-c2nc3cc(NC(=O)c4ccc([N+](=O)[O-])o4)ccc3o2)cc1Br | 5.16 | 74 µM | 5.19 |
| CCOC(=O)c1c(NC(=O)COc2ccccc2[N+](=O)[O-])sc(C(C)=O)c1C | < 5.90 | > 10 µM | < 6.07 |
| O=C(NCC1CCCO1)c1ccc([N+](=O)[O-])cc1Cl (stereo not given) | < 5.95 | > 10 µM | < 6.06 |
| CCc1ccc(C(=O)N(C)CCCNc2ccnc3cc(Cl)ccc23)cc1 | 6.47 | 2.86 µM | 6.60 |
| CCCCN1C(=O)/C(=C/N(C(=O)CC)c2ccccc2)SC1=S | < 6.16 | > 10 µM | < 6.07 |
| CN(C)CCNC(=O)c1ccc(-c2cccc3c2sc2ccccc23)nc1N1CCN(CCO)CC1 | 6.41 | 5.32 µM | 6.34 |
| Cc1cc(-c2cncnc2C2CCN(C(=O)c3cc(C(C)C)n[nH]3)CC2)on1 | < 5.90 | > 10 µM | < 6.07 |
| CC1CN(C)C(C)CC1=NOC(=O)c1ccc(Cl)c(Cl)c1 (stereo not given) | < 5.90 | > 10 µM | < 6.07 |
| COc1ccccc1N1CCN(c2ccc(NC(=O)c3ccc(Br)cc3)cc2C(=O)NCCCN(C)C)CC1 | < 5.90 | 1.34 µM | 6.93 |
| CC(C)(C)CC(=O)N1CCC[C@@H]2CN(C(=O)CCOc3ccccc3)CC[C@@H]21 | < 5.90 | > 10 µM | < 6.06 |
| CC(NCCN1CCNCC1)c1cc(C(C)(C)C)cc2c1CCC2(C)C (stereo not given) | 6.22 | 6.72 µM | 6.23 |
| O=C(O)CCCCCNc1ncnc2sc3c(c12)CCCC3 | < 5.90 | > 10 µM | 6.06 |
| COc1cc(Br)c(CCNC(=O)Cc2cc(OC)c(OC)cc2Br)cc1OC | < 5.06 | > 100 µM | < 5.06 |
| COc1ccc(/C=C/c2ccc3ccccc3[n+]2C)cc1OC | 6.06 | > 10 µM | 6.06 |
| CC1=NOC(=O)/C1=C/c1ccc(-c2ccc([N+](=O)[O-])cc2)o1 | < 5.90 | > 10 µM | < 6.06 |
| CCNc1ncnc2sc(C(=O)NCc3csc(C)n3)c(C)c12 | < 4.90 | > 100 µM | < 5.07 |
| CC(C)CNc1nc(NCCCN2CCCCC2C)ncc1C(=O)NCc1ccccc1 (stereo not given) | 6.63 | > 10 µM | 6.07 |
| O=C1Nc2ccccc2C1=Nc1ccccc1NS(=O)(=O)c1ccc2ccccc2c1 | < 5.90 | > 10 µM | < 6.07 |
| CC(c1nc2ccc(Cl)cc2c(=O)n1C)N1CCN(C(=O)C(C)(C)C)CC1 (stereo not given) | 5.83 | > 10 µM | 6.07 |
| O=C(NCC1CCCO1)c1cc(S(=O)(=O)N2CCCCC2)c[nH]1 (stereo not given) | < 5.90 | > 10 µM | < 6.07 |
| CCOC(=O)c1ccc(N2CCN(c3ccc(F)cc3)CC2)c(NC(=O)Nc2ccccc2)c1 | < 5.90 | > 10 µM | < 6.07 |
| O=[N+]([O-])c1ccc(Nc2nc(NN=Cc3ccccc3I)nc(Nc3ccccc3)n2)cc1 | 6.07 | 32.8 µM | 5.55 |

| SMILES | pEC50 (Plasmodium falciparum [1]) | CC50 [2] | pEC50 (Plasmodium falciparum [3]) |
| --- | --- | --- | --- |
| COc1cc(C)c(CCNCCCCCCNCCc2cc(OC)c(OC)cc2C)cc1OC | 6.64 | > 10 µM | < 6.06 |
| CC[C@H]1CN2CC[C@H]1C[C@H]2[C@H](O)c1ccnc2ccccc12 | 6.74 | > 7.91 µM | 6.16 |
| CC(C)N1CCc2c(sc(NC(=O)C(C)(C)C)c2C(N)=O)C1 | 5.99 | 71.2 µM | 5.20 |
| Cc1cnc(Sc2ccccn2)c([N+](=O)[O-])c1 | < 4.90 | 72.9 µM | 5.21 |
| CN(C)CCNc1ccc2ncc(-c3ccsc3)n2n1 | < 5.90 | > 10 µM | < 6.07 |
| CC1(C)C2C[C@@H](COC(=O)NC(=O)c3ccccc3)[C@]3(C)[C@H](C21)C3(Cl)Cl (stereo not given in full) | 5.94 | > 11.2 µM | 6.02 |
| Cn1nc(C(=O)N2CCCC2)c2c1CCC(NCc1cnc3ccccc3c1)C2 (stereo not given) | < 5.90 | > 10 µM | < 6.07 |
| Cc1ccc(Nc2nc(N)c3ccccc3n2)cc1Cl | 6.28 | 8.92 µM | 6.12 |
| CCOc1ccc(-c2noc(-c3ccncc3)n2)cc1OCC | < 5.90 | > 10 µM | < 6.07 |
| COc1ccc2nc3cc(Cl)ccc3c(Nc3ccc(O)cc3)c2c1 | 6.09 | > 10 µM | 6.07 |
| COc1ccccc1NC(=O)CSc1nc2cccnc2n1-c1ccccc1OC | 6.08 | > 10 µM | 6.07 |
| O=C(NCCc1ccccc1)c1cnc(NCCCn2ccnc2)nc1Nc1ccccc1 | 6.26 | > 10 µM | 6.07 |
| CCCCCN(C(=O)COCc1ccccc1)C(CC)c1nc2ccccc2c(=O)n1-c1cccc(Cl)c1 (stereo not given) | 6.39 | > 10 µM | 6.07 |
| CC(C)c1ccc(-c2cncc(N[C@@H](C)c3ccccc3)n2)cc1 | < 6.25 | > 10 µM | 6.07 |
| O=C1C(=Cc2cc([N+](=O)[O-])cc(Br)c2O)C(=O)c2ccccc21 | < 5.90 | > 10 µM | < 6.06 |
| COc1cc(NC(C)CCCN(Cc2ccc(Cl)cc2)C(=O)C(C)C)c2ncccc2c1 (stereo not given) | 5.77 | 13.2 µM | 5.95 |
| CN1CCN(C(=S)NC(=O)/C=C/c2ccc(F)cc2)CC1 | < 5.90 | > 10 µM | < 6.06 |
| COC(=O)c1c(-c2ccccc2Cl)csc1N | < 5.90 | > 10 µM | < 6.07 |
| O=[N+]([O-])c1cccc(CNc2ccc(F)c(Cl)c2)c1 | < 4.90 | > 95.6 µM | 5.09 |
| CC1C(Br)C(=O)C(Br)C(C)C12CCCC2 (stereo not given) | < 5.90 | > 10 µM | < 6.06 |
| CC(=NNc1nc2ccccc2s1)c1ccc([N+](=O)[O-])cc1 | < 6.02 | > 10 µM | < 6.07 |
| C=CCn1c2cc(C)sc2c2cnn(CC(=O)N3CC(C)CC(C)C3)c(=O)c21 (stereo not given) | < 5.90 | > 10 µM | < 6.07 |
| Cc1nn(C)cc1-c1nc2cnccn2c1NCC1CCCO1 (stereo not given) | < 5.90 | > 10 µM | < 6.06 |
| COc1ccccc1CCNCc1cc(-c2ccc(F)cc2)ccc1O | 5.98 | > 10 µM | 6.06 |
| CCC1=NN2C(=N)/C(=C/c3cn(CCOc4ccccc4C(C)CC)c4ccccc34)C(=O)N=C2S1 (stereo not given) | < 5.90 | > 10 µM | < 6.06 |
| CC1CC2=C(CC1CNCCCN(C)C)C(C)(C)CCC2 (stereo not given) | 6.60 | > 10 µM | 6.07 |
| COc1cc(NC(C)CCCN(Cc2ccccc2OC)C(=O)c2cccc(Br)c2)c2ncccc2c1 (stereo not given) | < 6.02 | > 6.43 µM | 6.25 |
